Experiments:
Experiment in all cases: biochemical
Assay type in all cases: biochemical
[1] = molecular target: 363 human kinases (including Aurora A/B/C) (Homo sapiens, UniProt P05771); settings: PKCb1; for remaining activity at 0.1 µM: 100 nM; for remaining activity at 0.1 µM / remaining activity at 0.5 µM: read-out: % Enzyme Activity (relative to DMSO controls)
Description: (§1) However, the Aurora A/B selectivity ratios derived from our in vitro and in vivo data can be compared to prioritize inhibitors.

[2] = molecular target: T1, 363 human kinases (including Aurora A/B/C) (Homo sapiens, UniProt Q12851); settings: GCK/MAP4K2; for remaining activity at 0.1 µM: 100 nM; for remaining activity at 0.1 µM / remaining activity at 0.5 µM: read-out: % Enzyme Activity (relative to DMSO controls)
T1 sequence (Q12851 1-820): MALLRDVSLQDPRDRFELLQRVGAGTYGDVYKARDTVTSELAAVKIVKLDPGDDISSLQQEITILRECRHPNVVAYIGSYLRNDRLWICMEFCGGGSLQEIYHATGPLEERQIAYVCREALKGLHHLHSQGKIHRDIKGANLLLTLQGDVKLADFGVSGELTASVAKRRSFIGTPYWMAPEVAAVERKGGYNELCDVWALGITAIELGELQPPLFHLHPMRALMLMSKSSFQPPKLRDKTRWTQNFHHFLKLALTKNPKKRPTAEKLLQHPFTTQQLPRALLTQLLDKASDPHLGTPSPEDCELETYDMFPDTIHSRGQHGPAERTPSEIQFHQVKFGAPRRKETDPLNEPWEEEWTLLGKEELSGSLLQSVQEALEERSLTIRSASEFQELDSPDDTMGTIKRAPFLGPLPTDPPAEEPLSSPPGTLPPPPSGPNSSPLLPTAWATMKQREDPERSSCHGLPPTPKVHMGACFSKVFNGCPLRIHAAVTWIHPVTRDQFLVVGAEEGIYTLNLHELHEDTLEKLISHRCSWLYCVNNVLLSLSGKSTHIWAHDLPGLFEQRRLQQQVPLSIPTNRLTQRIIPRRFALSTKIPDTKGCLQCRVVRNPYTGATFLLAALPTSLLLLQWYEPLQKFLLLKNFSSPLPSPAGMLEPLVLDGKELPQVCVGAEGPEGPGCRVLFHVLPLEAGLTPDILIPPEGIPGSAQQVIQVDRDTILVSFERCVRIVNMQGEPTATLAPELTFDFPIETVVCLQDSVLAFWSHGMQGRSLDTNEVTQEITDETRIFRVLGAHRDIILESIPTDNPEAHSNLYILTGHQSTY
Description: as §1

[3] = molecular target: T2, 363 human kinases (including Aurora A/B/C) (Homo sapiens, UniProt Q8TD19); settings: NEK9; for remaining activity at 0.1 µM: 100 nM; for remaining activity at 0.1 µM / remaining activity at 0.5 µM: read-out: % Enzyme Activity (relative to DMSO controls)
T2 sequence (Q8TD19 1-979): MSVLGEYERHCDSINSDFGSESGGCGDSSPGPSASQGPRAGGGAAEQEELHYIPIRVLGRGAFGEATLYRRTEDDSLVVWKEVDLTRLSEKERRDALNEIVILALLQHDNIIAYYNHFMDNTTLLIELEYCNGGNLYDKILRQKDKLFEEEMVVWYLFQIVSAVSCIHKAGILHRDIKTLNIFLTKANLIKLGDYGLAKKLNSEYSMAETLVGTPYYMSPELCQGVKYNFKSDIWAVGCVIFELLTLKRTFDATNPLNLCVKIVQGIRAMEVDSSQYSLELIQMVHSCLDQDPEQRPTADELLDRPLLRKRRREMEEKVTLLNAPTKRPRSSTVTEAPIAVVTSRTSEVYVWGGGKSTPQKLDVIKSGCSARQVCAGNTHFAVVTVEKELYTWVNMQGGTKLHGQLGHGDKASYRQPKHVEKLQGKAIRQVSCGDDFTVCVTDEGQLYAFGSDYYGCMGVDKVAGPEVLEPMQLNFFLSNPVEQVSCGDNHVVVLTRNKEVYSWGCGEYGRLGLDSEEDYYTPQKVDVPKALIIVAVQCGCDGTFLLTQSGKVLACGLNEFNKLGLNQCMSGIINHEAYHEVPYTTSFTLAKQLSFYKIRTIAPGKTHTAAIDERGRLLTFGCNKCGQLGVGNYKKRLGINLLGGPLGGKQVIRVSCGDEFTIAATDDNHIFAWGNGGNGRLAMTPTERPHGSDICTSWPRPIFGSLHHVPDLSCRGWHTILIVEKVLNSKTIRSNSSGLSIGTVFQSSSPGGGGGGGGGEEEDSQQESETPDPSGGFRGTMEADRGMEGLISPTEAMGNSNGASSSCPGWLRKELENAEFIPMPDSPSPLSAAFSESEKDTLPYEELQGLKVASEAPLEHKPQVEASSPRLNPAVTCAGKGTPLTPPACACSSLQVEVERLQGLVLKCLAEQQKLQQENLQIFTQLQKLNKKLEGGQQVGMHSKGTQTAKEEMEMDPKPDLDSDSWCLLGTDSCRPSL
Description: as §1

[4] = molecular target: T3, 363 human kinases (including Aurora A/B/C) (Homo sapiens, UniProt O00141); settings: SGK1; for remaining activity at 0.1 µM: 100 nM; for remaining activity at 0.1 µM / remaining activity at 0.5 µM: read-out: % Enzyme Activity (relative to DMSO controls)
T3 sequence (O00141 1-431): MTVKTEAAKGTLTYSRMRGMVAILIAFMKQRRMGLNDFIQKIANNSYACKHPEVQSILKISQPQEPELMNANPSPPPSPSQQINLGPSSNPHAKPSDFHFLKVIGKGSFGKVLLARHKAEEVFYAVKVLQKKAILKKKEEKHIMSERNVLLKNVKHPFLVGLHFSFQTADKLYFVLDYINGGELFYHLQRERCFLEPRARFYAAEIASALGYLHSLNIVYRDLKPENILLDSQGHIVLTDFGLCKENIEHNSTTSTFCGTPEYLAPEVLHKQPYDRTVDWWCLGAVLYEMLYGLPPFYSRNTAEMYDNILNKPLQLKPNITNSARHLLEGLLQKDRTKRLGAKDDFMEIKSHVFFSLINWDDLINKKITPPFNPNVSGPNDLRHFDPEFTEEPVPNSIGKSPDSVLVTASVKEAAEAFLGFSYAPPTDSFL
Description: as §1

Chain of 363 human kinases (including Aurora A/B/C) (Homo sapiens, UniProt P05771) (P05771 whole entry): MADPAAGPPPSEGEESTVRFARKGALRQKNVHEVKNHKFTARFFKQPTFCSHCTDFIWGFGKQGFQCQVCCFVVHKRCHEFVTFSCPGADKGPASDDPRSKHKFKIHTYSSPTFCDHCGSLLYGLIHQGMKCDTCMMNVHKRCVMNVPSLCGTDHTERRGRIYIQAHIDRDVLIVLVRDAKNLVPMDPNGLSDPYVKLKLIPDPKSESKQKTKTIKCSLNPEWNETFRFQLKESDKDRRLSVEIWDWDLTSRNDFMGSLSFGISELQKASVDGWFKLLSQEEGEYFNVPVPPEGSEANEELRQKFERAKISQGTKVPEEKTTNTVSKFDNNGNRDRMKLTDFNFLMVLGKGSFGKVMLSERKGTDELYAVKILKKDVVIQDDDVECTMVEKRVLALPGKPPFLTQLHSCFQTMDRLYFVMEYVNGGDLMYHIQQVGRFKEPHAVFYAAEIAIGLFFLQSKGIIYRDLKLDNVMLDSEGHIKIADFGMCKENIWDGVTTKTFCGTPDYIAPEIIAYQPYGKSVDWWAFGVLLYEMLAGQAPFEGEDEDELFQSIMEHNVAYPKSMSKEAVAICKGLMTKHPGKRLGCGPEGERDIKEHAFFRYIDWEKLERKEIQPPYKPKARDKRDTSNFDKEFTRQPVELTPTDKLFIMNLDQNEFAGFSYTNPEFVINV

Structure (SMILES) | remaining activity at 0.1 µM [1] [%] | remaining activity at 0.5 µM ([1]; 500 nM) [%] | remaining activity at 0.1 µM [2] [%] | remaining activity at 0.5 µM ([2]; 500 nM) [%] | remaining activity at 0.1 µM [3] [%] | remaining activity at 0.5 µM ([3]; 500 nM) [%] | remaining activity at 0.1 µM [4] [%] | remaining activity at 0.5 µM ([4]; 500 nM) [%] | % Enzyme Activity (relative to DMSO controls) ([1]; 500 nM) [%] | % Enzyme Activity (relative to DMSO controls) ([2]; 500 nM) [%] | % Enzyme Activity (relative to DMSO controls) ([3]; 500 nM) [%] | % Enzyme Activity (relative to DMSO controls) ([4]; 500 nM) [%]
O=C(O)[C@]1(Cc2cccc(Nc3nccs3)n2)CC[C@@H](Oc2cccc(Cl)c2F)CC1 [MK-5108] | 87.4 | 74 | 97.2 | 69.4 | 95.2 | 60.7 | 104 | 113 |  |  |  | 
O=C(c1cccc(Cl)c1F)N1CCN(Cc2cccc(Nc3nccs3)n2)CC1 [MK-8745] |  | 98.2 |  | 93.7 |  | 96.6 |  | 104 | 96.23 | 91.89 | 95.13 | 103.73
CCn1cc(-c2ccnc3[nH]c(-c4cccc(CN(C)C)c4)cc23)c(-c2ccc(NC(=O)N(C)C)cc2)n1 [GSK1070916] | 98.6 |  | 91.1 |  | 83.8 |  | 118 |  |  |  |  | 

— PMC4685510, “A Cell Biologist’s Field Guide to Aurora Kinase Inhibitors” (Frontiers in Oncology, 2015)
